US10214567B2, “Tagged hepadnavirus E antigen and its use in screening antiviral substances” (Drexel University, priority 2014, dated 2019)
Entries after “also recorded” stand apart in the source; their conditions may differ.

Test system: HA-HBeAg production from HepBHAe13 cells
Assay: HA-HBeAg CLIA in HepBHAe13 cells treated with cccDNA formation inhibitors (96-well-plate)
Type: cell-based, Hepatitis B virus (HBV)
Conditions: tetracycline removed, compounds at indicated concentrations, 0.5% DMSO, day 12 post treatment (FIG. 11)
Source text: According to another aspect of the present invention, the in vitro assay method can be used to evaluate compounds/candidate molecules that suppress cccDNA formation. Briefly, cells can be seeded into culture wells and tetracycline can be omitted at the day when cell monolayer becomes confluent. Simultaneously, test compound can be added and tagged hepadnavirus e antigen (like HA-HBeAg) in the medium can be measured by ELISA at the end of treatment (approximately 6 days). […] As an expanding aspect of this in vitro assay method, it is worth to note that the reduction of tagged hepadnavirus e antigen (like HA-HBeAg) in this assay may also indicate that the compound has the potential to inhibit hepadnavirus (like HBV) DNA replication. Such possibility can be investigated through direct measurement of viral core DNA by Southern blot and/or qPCR. […]
FIG. 11. […] At day 12 post treatment, culture fluid was subjected to HA-HBeAg CLIA and readout was plotted as percentage (mean±SD) to control.
For chemiluminescence enzyme immunoassay (CLIA) detection of HA-tagged HBeAg, high sensitivity streptavidin coated plate (Black, cat#: 15525, Thermo Scientific) was washed by PBST (PBS plus 0.05% Tween 20) for 3 times, and then incubated with 50 μl of anti-HA-biotin (cat#: A00203, Genscript; 5 μg/ml in PBS) at RT for 30 min, followed by wash with 200 μl PBST for 3 times. […] The plate was read on a luminometer.

SMILES | HA-HBeAg level in culture fluid (CLIA, percentage to control)
Cc1nc2cc(NC(=O)c3ccc(S(=O)(=O)N(C)Cc4ccccc4)cc3)ccc2s1 [CCC-0346] | dose-dependent inhibition of HA-HBeAg production; also recorded: dose dependently reduced the HA-HBeAg level
O=C(CN(c1cc(C(F)(F)F)ccc1Cl)S(=O)(=O)c1ccccc1)NCc1ccncc1 [CCC-0975] | dose-dependent inhibition of HA-HBeAg production; also recorded: dose dependently reduced the HA-HBeAg level
